Experimental data taken from ChEMBL document CHEMBL4219188, “Design, synthesis, neuroprotective, antibacterial activities and docking studies of novel thieno[2,3-d]pyrimidine-alkyne Mannich base and oxadiazole hybrids” (Bioorg Med Chem Lett, 2018).
Values after ≈ are worked out from the molar mass of the structure shown.

Columns and labels:
[1] = tested on: Bacillus subtilis; assay: Antibacterial activity against Bacillus subtilis assessed as diameter of inhibition zone measured after 24 hrs by agar well diffusion method; assay type: functional
[2] = tested on: Escherichia coli; assay: Antibacterial activity against Escherichia coli assessed as diameter of inhibition zone measured after 24 hrs by agar well diffusion method; assay type: functional
[3] = tested on: Pseudomonas aeruginosa; assay: Antibacterial activity against Pseudomonas aeruginosa assessed as diameter of inhibition zone measured after 24 hrs by agar well diffusion method; assay type: functional
[4] = Cytotoxicity against rat PC12 cells after 24 hrs by MTT assay; assay type: cell-based, PC-12; details: for MNTC at 24 h: read-out: MNCC
[5] = Cytotoxicity against rat PC12 cells assessed as cell viability at MNTC after 24 hrs by MTT assay relative to control; assay type: cell-based, PC-12; details: read-out: Activity
[6] = Cytotoxicity against rat PC12 cells assessed as cell viability at CC50 after 24 hrs by MTT assay relative to control; assay type: cell-based, PC-12; details: read-out: Activity
[7] = tested on: PC-12; assay: Neuroprotective activity against H2O2-induced cytotoxicity in rat PC12 cells assessed as increase in cell viability pretreated for 24 hrs followed by H2O2 addition by MTT assay; assay type: functional, cell-based
[8] = tested on: PC-12; assay: Neuroprotective activity against H2O2-induced cytotoxicity in rat PC12 cells assessed as cell viability at EC50 pretreated for 24 hrs followed by H2O2 addition by MTT assay relative to control; assay type: functional
[9] = tested on: Staphylococcus aureus; assay: Antibacterial activity against Staphylococcus aureus assessed as diameter of inhibition zone measured after 24 hrs by agar well diffusion method; assay type: functional
[10] = tested on: Staphylococcus aureus; assay: Antibacterial activity against Staphylococcus aureus after 24 hrs by UV-vis spectrophotometric method; assay type: functional
[11] = tested on: Bacillus subtilis; assay: Antibacterial activity against Bacillus subtilis after 24 hrs by UV-vis spectrophotometric method; assay type: functional
[12] = tested on: Escherichia coli; assay: Antibacterial activity against Escherichia coli after 24 hrs by UV-vis spectrophotometric method; assay type: functional
[13] = tested on: Pseudomonas aeruginosa; assay: Antibacterial activity against Pseudomonas aeruginosa after 24 hrs by UV-vis spectrophotometric method; assay type: functional

| Compound | diameter of the inhibition zone (DIZ) [1] | diameter of the inhibition zone (DIZ) [2] | diameter of the inhibition zone (DIZ) [3] | CC50 at 24 h [4] | MNTC at 24 h [4] | viability at 24 h [5] | viability at 24 h [6] | Activity [7] | EC50 [7] | Activity [8] | diameter of the inhibition zone (DIZ) [9] | MIC [10] | MIC [11] | MIC [12] | MIC [13] |
| --- | --- | --- | --- | --- | --- | --- | --- | --- | --- | --- | --- | --- | --- | --- | --- |
| Cc1ccc(-c2nnc(-c3sc4ncnc(N5CCOCC5)c4c3C)o2)cc1 | 15 mm | 18 mm | 14 mm | 86.1 µg/mL (≈ 219 µM) | 68 µg/mL | 97.6% | 49.2% | Dose-dependent effect | 26.6 µg/mL (≈ 67.6 µM) | 74.2% | 18 mm | 0.0546 µg/mL (≈ 0.139 µM) | 0.0464 µg/mL (≈ 0.118 µM) | 0.0132 µg/mL (≈ 0.0335 µM) | 0.0442 µg/mL (≈ 0.112 µM) |
| Cc1ccc(C#N)c(N2CCN(CC#CCOC(=O)c3sc4ncnc(N5CCCCC5)c4c3C)CC2)c1 | 13 mm | 15 mm | 14 mm | 114 µg/mL (≈ 216 µM) | 96 µg/mL | 98.2% | 49% | Dose-dependent effect | 38.2 µg/mL (≈ 72.2 µM) | 76.04% | 13 mm | 0.122 µg/mL (≈ 0.231 µM) | 0.0312 µg/mL (≈ 0.059 µM) | 0.0144 µg/mL (≈ 0.0272 µM) | 0.0624 µg/mL (≈ 0.118 µM) |
| GENTAMICIN | – | – | – | – | – | – | – | – | – | – | – | 0.0422 µg/mL | 0.0386 µg/mL | 0.0212 µg/mL | 0.0242 µg/mL |
| COc1cccc(N2CCN(CC#CCOC(=O)c3sc4ncnc(N5CCOCC5)c4c3C)CC2)c1 | 16 mm | 14 mm | 14 mm | 161 µg/mL (≈ 308 µM) | 114 µg/mL | 98.1% | 50% | Dose-dependent effect | 38.4 µg/mL (≈ 73.6 µM) | 76.78% | 12 mm | 0.0311 µg/mL (≈ 0.0596 µM) | 0.012 µg/mL (≈ 0.023 µM) | 0.501 µg/mL (≈ 0.96 µM) | 0.0124 µg/mL (≈ 0.0238 µM) |
| Cc1c(C(=O)OCC#CCN2CCN(c3ccc(Br)cc3C#N)CC2)sc2ncnc(N3CCCCC3)c12 | 16 mm | 14 mm | 15 mm | 136 µg/mL (≈ 230 µM) | 96 µg/mL | 99.1% | 51.2% | Dose-dependent effect | 40.9 µg/mL (≈ 68.8 µM) | 76.18% | 13 mm | 0.0124 µg/mL (≈ 0.0209 µM) | 0.0186 µg/mL (≈ 0.0313 µM) | 0.0244 µg/mL (≈ 0.0411 µM) | 0.0112 µg/mL (≈ 0.0189 µM) |
| Cc1c(-c2nnc(-c3ccc([N+](=O)[O-])cc3)o2)sc2ncnc(N3CCOCC3)c12 | 13 mm | 16 mm | 16 mm | 94.2 µg/mL (≈ 222 µM) | 80 µg/mL | 99.2% | 49.2% | Dose-dependent effect | 16.2 µg/mL (≈ 38.1 µM) | 75.11% | 16 mm | 0.046 µg/mL (≈ 0.108 µM) | 0.0381 µg/mL (≈ 0.0898 µM) | 0.0382 µg/mL (≈ 0.09 µM) | 0.0266 µg/mL (≈ 0.0627 µM) |
| Cc1c(-c2nnc(-c3ccccc3)o2)sc2ncnc(N3CCCCC3)c12 | 14 mm | 10 mm | 13 mm | 146 µg/mL (≈ 387 µM) | 100 µg/mL | 99.2% | 54.1% | Dose-dependent effect | 22.1 µg/mL (≈ 58.6 µM) | 76.88% | 11 mm | 0.0125 µg/mL (≈ 0.0331 µM) | 0.0128 µg/mL (≈ 0.0339 µM) | 0.0132 µg/mL (≈ 0.035 µM) | 0.0144 µg/mL (≈ 0.0381 µM) |
| COc1cccc(N2CCN(CC#CCOC(=O)c3sc4ncnc(N5CCCCC5)c4c3C)CC2)c1 | 13 mm | 13 mm | 14 mm | 144 µg/mL (≈ 278 µM) | 96 µg/mL | 98.2% | 51% | Dose-dependent effect | 40.4 µg/mL (≈ 77.8 µM) | 75.08% | 10 mm | 0.0244 µg/mL (≈ 0.047 µM) | 0.521 µg/mL (≈ 1 µM) | 0.0384 µg/mL (≈ 0.0739 µM) | 0.0842 µg/mL (≈ 0.162 µM) |
| Cc1c(-c2nnc(-c3ccccc3)o2)sc2ncnc(N3CCOCC3)c12 | 12 mm | 16 mm | 11 mm | 200 µg/mL (≈ 527 µM) | 160 µg/mL | 99.5% | 50.4% | Dose-dependent effect | 10.6 µg/mL (≈ 27.9 µM) | 76.18% | 16 mm | 0.0412 µg/mL (≈ 0.109 µM) | 0.0366 µg/mL (≈ 0.0965 µM) | 0.0211 µg/mL (≈ 0.0556 µM) | 0.0186 µg/mL (≈ 0.049 µM) |
